Experimental data published in PubChem BioAssay (NCI).
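Dose response: 5 concentrations. Exposure: 48 h. Format: 96-well plates. Endpoint: linear interpolation; highest concentration if not reached. Abbreviation: GI50, concentration required for 50% inhibition of growth. At the TGI there is no net growth.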

Assays:
Assay in all cases: growth of human tumour cells (NCI), 48 h
[1] = tested on: HT29 colon
[2] = tested on: HL-60(TB) leukemia
[3] = tested on: NCI/ADR-RES ovarian
[4] = tested on: EKVX NSCLC
[5] = tested on: NCI-H23 lung
[6] = tested on: M14 melanoma
[7] = tested on: U251 CNS
[8] = tested on: UACC-257 melanoma
[9] = tested on: SF-268 CNS
[10] = tested on: NCI-H226 lung
[11] = tested on: MALME-3M melanoma
[12] = tested on: MDA-MB-435
[13] = tested on: UO-31 renal
[14] = tested on: ACHN renal
[15] = tested on: OVCAR-3 ovarian
[16] = tested on: HCT-116 colon
[17] = tested on: BT-549 breast
[18] = tested on: HCT-15 colon
[19] = tested on: IGROV1 ovarian
[20] = tested on: SN12C renal
[21] = tested on: CCRF-CEM leukemia
[22] = tested on: TK-10 renal
[23] = tested on: RPMI-8226 leukemia
[24] = tested on: PC-3 prostate
[25] = tested on: RXF 393 renal
[26] = tested on: HOP-92 NSCLC
[27] = tested on: UACC-62 melanoma
[28] = tested on: SK-OV-3 ovarian
[29] = tested on: DU-145 prostate

Compound: Oc1ccc(C(c2ccc(O)cc2)c2ccc(Br)cn2)cc1
- GI50 [1]: 5.99 µM
- TGI [1]: 98.7 µM
- GI50 [2]: 10.6 µM
- TGI [2]: 44 µM
- GI50 [3]: 0.229 µM
- TGI [3]: 0.55 µM
- GI50 [4]: 0.358 µM
- TGI [4]: 3.85 µM
- GI50 [5]: 0.267 µM
- TGI [5]: 0.772 µM
- GI50 [6]: 14.5 µM
- TGI [6]: 47.4 µM
- GI50 [7]: 18.5 µM
- TGI [7]: 50.9 µM
- GI50 [8]: 17.4 µM
- TGI [8]: 61.5 µM
- GI50 [9]: 21.5 µM
- TGI [9]: > 91 µM
- GI50 [10]: 0.243 µM
- TGI [10]: 0.651 µM
- GI50 [11]: 17.7 µM
- TGI [11]: 59.8 µM
- GI50 [12]: 20 µM
- TGI [12]: 65.9 µM
- GI50 [13]: 6.14 µM
- TGI [13]: 40.7 µM
- GI50 [14]: 0.45 µM
- TGI [14]: 14.5 µM
- GI50 [15]: 0.0963 µM
- TGI [15]: 0.411 µM
- GI50 [16]: 0.517 µM
- TGI [16]: 14.4 µM
- GI50 [17]: 0.26 µM
- TGI [17]: 0.788 µM
- GI50 [18]: 0.425 µM
- TGI [18]: 16.9 µM
- GI50 [19]: 0.476 µM
- TGI [19]: 42.7 µM
- GI50 [20]: 0.325 µM
- TGI [20]: 3.82 µM
- GI50 [21]: 14.7 µM
- TGI [21]: > 100 µM
- GI50 [22]: 0.258 µM
- TGI [22]: 1.13 µM
- GI50 [23]: 15.6 µM
- TGI [23]: 58.6 µM
- GI50 [24]: 0.257 µM
- TGI [24]: 0.72 µM
- GI50 [25]: 0.217 µM
- TGI [25]: 0.532 µM
- GI50 [26]: 0.25 µM
- TGI [26]: 1.44 µM
- GI50 [27]: 3.71 µM
- TGI [27]: 15.5 µM
- GI50 [28]: 12.5 µM
- TGI [28]: 65.4 µM
- GI50 [29]: 2.8 µM
- TGI [29]: > 69.3 µM
